In one assay the target is T1, MMP-2 (Homo sapiens, UniProt P08253).
T1 construct: purchased Calbiochem-Novabiochem International, Inc
T1 sequence (P08253 110-660): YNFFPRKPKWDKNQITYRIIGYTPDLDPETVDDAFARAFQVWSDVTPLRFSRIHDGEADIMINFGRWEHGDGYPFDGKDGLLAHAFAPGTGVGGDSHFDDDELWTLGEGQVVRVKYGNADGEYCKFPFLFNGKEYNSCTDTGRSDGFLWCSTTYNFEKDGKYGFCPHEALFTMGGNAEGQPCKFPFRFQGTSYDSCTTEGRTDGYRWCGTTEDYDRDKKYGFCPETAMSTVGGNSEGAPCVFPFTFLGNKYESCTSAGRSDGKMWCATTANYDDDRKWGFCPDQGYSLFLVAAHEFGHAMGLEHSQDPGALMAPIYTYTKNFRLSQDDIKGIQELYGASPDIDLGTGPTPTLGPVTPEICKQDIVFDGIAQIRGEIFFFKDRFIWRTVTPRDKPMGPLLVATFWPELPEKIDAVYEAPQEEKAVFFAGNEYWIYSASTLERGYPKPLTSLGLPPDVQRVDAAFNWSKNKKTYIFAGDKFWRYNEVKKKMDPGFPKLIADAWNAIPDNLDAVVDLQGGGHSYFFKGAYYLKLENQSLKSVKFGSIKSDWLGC
Put plainly: Assay for inhibitory activities on MMPs (fluorogenic peptide substrate): MMP-2. In kind it is biochemical. To be noted: substrate MOCAc-Pro-Leu-Gly-Leu-A2Pr(DNP)-Ala-Arg-NH2. As to the method:
MMP-2 was purchased from Calbiochem-Novabiochem International, Inc.
(§1) The enzymatic activity on MMPs was analyzed by the method described in “C. Graham Knight, Frances Willenbrock and Gillian Murphy: A novel coumarin-labelled peptide for sensitive continuous assays of the matrix metalloproteinases: FEBS LETT., 296, (1992), 263-266”. The substrate: MOCAc-Pro-Leu-Gly-Leu-A2Pr(DNP)-Ala-Arg-NH2 was purchased from Peptide Institute, Inc., Osaka, Japan. The measurement of the inhibitory activities (IC50) was carried out by the following four methods;
(§2) (A) Reaction with substrate, enzyme (MMPs) and inhibitor
(§3) (B) Reaction with substrate and inhibitor, without enzyme
(§4) (C) Reaction with substrate and enzyme (MMPs), without inhibitor
(§5) (D) Reaction with substrate only
(§6) IC50 values were calculated by using the following formula and each fluorescence values of above four methods (A to D).
(§7) % inhibition={1−(A−B)/(C−D)}×100
(§8) IC50 means the concentration required to inhibit 50% of the enzyme activity.

The next assay concerns the target T2, MMP-9 (Homo sapiens, UniProt P14780).
T2 construct: endogenous in cells; host or cells: HT1080 human fibrosarcoma cells, TPA-stimulated; purified in house from conditioned medium
As to the kind of experiment: Assay for inhibitory activities on MMPs (fluorogenic peptide substrate): MMP-9. To be noted: substrate MOCAc-Pro-Leu-Gly-Leu-A2Pr(DNP)-Ala-Arg-NH2. In kind it is biochemical.
Description: MMP-9 was isolated and purified by using a combination of procedures described in previous reports as follows. Yasunori Okada, Yukio Gonoji, Katsumi Naka, Katsuro Tomita, Isao Nakanishi, Kazushi Iwata, Kyoko Yamashita, and Taro Hayakawa: Matrix metalloproteinase 9 (92-kDa gelatinase/type IV collagenase) from HT1080 human fibrosarcoma cells. Purification and activation of the precursor and enzymic properties. J. Biol. Chem., 267 (1.992) 21712-21719. Yasunori Okada, Tatsuhisa Morodomi, Jan J, Enghild, Ko Suzuki, Atsushi Yasui, Isao Nakanishi, Guy Salvesen and Hideaki Nagase: Matrix metalloproteinase 2 from human rheumatoid synovial fibroblasts. Purification and activation of the precursor and enzymic properties. Eur. J. Biochem. 194 (1990) 721-730. Robin V Ward, Rosalind M Hembry, John J Reynolds and Gillian Murphy: The purification of tissue inhibitor of metalloproteinase-2 from its 72 kDa progelatinase complex. Biochem. J. 278 (1991) 179-187.
Briefly, human fibrosarcoma ATCC HT1080 cell line was cultured to confluent in Dulbecco's Modified Medium (DMEM) containing 10% fetal-calf serum at 37° C. for 48 hours. Subsequently, the medium of confluent culture was changed to serum-free DMEM medium. To obtain MMP-9, Phorbol-12-myristate-13-acetate (TPA) must be added to this serum-free DMEM medium at a concentration of 50 ng/ml. The TPA treated medium was centrifuged at 3000 rpm for 15 min and the supernatant was concentrated to 450 ml by a Toyo-Roshi UP-20 apparatus with an ultrafiltration membrane. Then, proMMP-9 in this concentrated solution was purified by using columns of Gelatin-Sepharose and Concanavalin A-Sepharose. The pool containing proMMP-9 was dialyzed, concentrated (Toyo-Roshi UP-20) and applied to columns of Sephacryl S-200 and Green A matrix for the separation from TIMPs. The obtained proMMP-9 fraction was activated by TPCK-Trypsin (final conc. […] reaction mix.).
as §1, §2, §3, §4, §5, §6, §7, §8

For another assay, the target named is T3, MMP-13 catalytic domain (Homo sapiens, UniProt P45452).
T3 construct: catalytic domain (^104Tyr˜^267Gly); His-tag; enterokinase digestion-site; made in house; host or cells: Escherichia coli
As to the kind of experiment: Assay for inhibitory activities on MMPs (fluorogenic peptide substrate): MMP-13. The format is biochemical. To be noted: substrate MOCAc-Pro-Leu-Gly-Leu-A2Pr(DNP)-Ala-Arg-NH2. As to the method:
In regard to MMP-13, mRNA was prepared from carcinoma cell SW1353 derived from human cartilage stimulate by IL-1, TNF and catalytic domain (^104Tyr˜^267Gly) was amplified with RT-PCR. This was cloned in Escherichia coli expression vector pTrc99AHE inserted with His-tag sequence and enterokinase digestion-site, induced and expressed by IPTG (Isopropyl-β-D-thiogalactopyranoside) and expressed in a insoluble fraction. Isolation of MMP-1.3 from a insoluble fraction was carried out by dissolving in modifier (6M urea) by a usual method and purification with metal chelate chromatography (Ni Chelateing Sepharose). And then removing modifier (6M urea) with dialyze and refolding of the enzyme spontaneously gave activated MMP-13.
as §1, §2, §3, §4, §5, §6, §7, §8

Assay [1] concerns Sprague-Dawley male rats exposed to cigarette smoke. Put plainly: Cigarette smoke exposure in rats, lung mechanics. In kind it is in vivo, rat. To be noted: 30 mg/kg p.o. twice daily. As to the method:
Sprague-Dawley male rats (390-430 g initial body weight) were exposed daily to smoke from commercial filtered cigarettes (30 cigarettes/rat/day, 5 days/week, for 7 to 8 weeks) with a smoke-generating and whole-body exposure system. The animals received 30 mg/kg p.o. twice daily of compound (B-6), which was suspended with 0.5% methyl cellulose. Vehicle animals received 2 ml/kg of 0.5% methyl cellulose. At 16-24 hr after the last exposure with cigarette smoke, anesthesia was induced with intraperitoneal injection of 40 mg/kg of pentobarbital sodium. Immediately after muscle relaxation with intravenous pancuronium bromide (0.3 mg/rat), animals were mechanically ventilated with a pressure-limited ventilator and were evaluated dynamic compliance. After exsanguination, the lung was attached to a glass syringe via a connector tube and continuously inflated through the airway to a transpulmonary pressure of 30 cmH2O, deflated them to a Ptp of 0 cmH2O, and aspirated them to a Ptp of −20 cmH2O. The change of Ptp and lung volume was monitored and recorded as the deflation pressure-volume (P-V) curve. Static lung compliance defined as the slope of steep portion of the deflation P-V curve was evaluated. Inspiratory capacity (IC) defined as the difference in lung volume between total lung capacity at a Ptp of 25 cmH2O and functional residual capacity at a Ptp of 0 cmH2O was evaluated.
Data are expressed as means ±S.D. Statistical analysis was performed with one-sided Student's t-test. A value of P<0.05 was considered significant.

Setting [2] is: cigarette smoke exposure 7 to 8 weeks, means ± S.D., n = 7.

The structures appear in SMILES notation.

The record followed here is US6897237B2, “MMP-12 inhibitors” (Shionogi & Co. Ltd., priority 2000, dated 2005).

T2 sequence (P14780 107-707 limits assumed): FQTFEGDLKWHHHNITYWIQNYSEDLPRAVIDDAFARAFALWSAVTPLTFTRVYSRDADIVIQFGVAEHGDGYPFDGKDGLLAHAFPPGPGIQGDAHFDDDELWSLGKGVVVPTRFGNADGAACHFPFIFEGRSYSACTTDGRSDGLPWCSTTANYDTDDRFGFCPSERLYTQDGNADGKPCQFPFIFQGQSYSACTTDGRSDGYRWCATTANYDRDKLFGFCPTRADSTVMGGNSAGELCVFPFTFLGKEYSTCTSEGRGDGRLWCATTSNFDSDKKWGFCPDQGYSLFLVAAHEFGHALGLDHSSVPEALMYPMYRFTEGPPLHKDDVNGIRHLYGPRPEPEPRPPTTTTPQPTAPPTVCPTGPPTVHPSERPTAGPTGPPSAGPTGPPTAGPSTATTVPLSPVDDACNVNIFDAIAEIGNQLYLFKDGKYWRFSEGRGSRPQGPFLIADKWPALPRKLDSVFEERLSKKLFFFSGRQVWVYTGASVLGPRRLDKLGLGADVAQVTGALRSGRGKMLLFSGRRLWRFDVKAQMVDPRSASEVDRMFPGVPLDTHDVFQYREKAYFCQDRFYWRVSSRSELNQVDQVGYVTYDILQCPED

As to `C[C@@H](NS(=O)(=O)c1ccc(C#Cc2ccc3ccccc3c2)s1)C(=O)O` [Compound B-6], it took 350 nM to reach half-maximal inhibition on MMP-2 (IC50). Further, on MMP-9, the half-maximal inhibitory concentration (IC50) amounted to 840 nM. Besides, the IC50 on MMP-13 catalytic domain was found to be 840 nM. Also, in assay [1], the “effect on increase of dynamic compliance by cigarette smoke exposure (in words)” value was “tended to attenuate the increase”, the “effect on increase of inspiratory capacity by cigarette smoke exposure (in words)” value was “tended to attenuate the increase” and the “effect on increase of static lung compliance by cigarette smoke exposure (in words)” value was “significantly reduced the increase”. In assay [1] (setting [2]), this molecule yielded an Inspiratory capacity of 21.76 ± 1.85 mL/kg and a dynamic compliance of 0.96 ± 0.17 ml/cmH2O/kg. In assay [1] (cigarette smoke exposure 7 to 8 weeks, means ± S.D., n = 7, P < 0.05 vs. Cigarette smoke exposure), the Static lung compliance is given as 2.05 ± 0.25 ml/cmH2O/kg.

Usually IC50 stands for the concentration at which inhibition is half-maximal.
